The text below walks through data of ChEMBL document CHEMBL1143211, “Inhibitors of proteases and amide hydrolases that employ an alpha-ketoheterocycle as a key enabling functionality” (Bioorg Med Chem, 2008).

Assay [1] concerns the target T1, Fatty-acid amide hydrolase 1 (Rattus norvegicus, UniProt P97612).
T1 sequence (P97612 whole entry): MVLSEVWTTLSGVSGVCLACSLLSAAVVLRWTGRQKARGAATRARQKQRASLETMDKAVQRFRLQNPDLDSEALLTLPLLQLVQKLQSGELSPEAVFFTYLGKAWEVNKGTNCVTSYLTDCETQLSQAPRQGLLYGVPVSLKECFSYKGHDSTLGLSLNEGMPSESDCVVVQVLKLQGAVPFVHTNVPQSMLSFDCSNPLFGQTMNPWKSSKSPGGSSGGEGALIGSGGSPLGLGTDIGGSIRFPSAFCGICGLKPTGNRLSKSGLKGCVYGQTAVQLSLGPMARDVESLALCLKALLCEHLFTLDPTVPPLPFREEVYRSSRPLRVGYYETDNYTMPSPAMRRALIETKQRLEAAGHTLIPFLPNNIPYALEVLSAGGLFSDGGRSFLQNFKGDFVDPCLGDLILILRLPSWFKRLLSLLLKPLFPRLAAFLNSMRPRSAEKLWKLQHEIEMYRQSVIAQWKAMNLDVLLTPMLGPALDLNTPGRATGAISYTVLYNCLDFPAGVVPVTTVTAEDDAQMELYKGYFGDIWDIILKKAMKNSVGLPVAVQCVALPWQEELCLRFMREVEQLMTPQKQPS

The target in another assay is Coagulation factor X (Homo sapiens, UniProt P00742). Put plainly: Inhibition of human factor 10a.
Chain of Coagulation factor X (P00742 41-179 limits assumed): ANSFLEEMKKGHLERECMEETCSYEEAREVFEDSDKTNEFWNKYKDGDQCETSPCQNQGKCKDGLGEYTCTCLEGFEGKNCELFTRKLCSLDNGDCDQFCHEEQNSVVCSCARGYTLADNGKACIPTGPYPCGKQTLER
Chain of Coagulation factor X (P00742 235-488 limits assumed): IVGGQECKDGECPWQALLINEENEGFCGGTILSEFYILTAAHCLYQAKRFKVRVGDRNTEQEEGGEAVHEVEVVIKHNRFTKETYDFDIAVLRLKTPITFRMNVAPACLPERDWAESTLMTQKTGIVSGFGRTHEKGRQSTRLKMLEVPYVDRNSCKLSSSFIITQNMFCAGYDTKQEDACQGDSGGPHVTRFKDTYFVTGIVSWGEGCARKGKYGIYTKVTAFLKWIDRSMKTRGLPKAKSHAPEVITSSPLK
A further assay concerns the target Prothrombin (Homo sapiens, UniProt P00734). Put plainly: Inhibition of human alpha-thrombin.
The next assay deals with Trypsin (Homo sapiens, UniProt P07477+P07478+P35030). Put plainly: Inhibition of human trypsin. Format: protein assay.

Take `CCCCC(=O)c1nc2ncccc2o1`: the Ki – broadly, the dissociation constant of the complex between target and ligand, obtained from inhibition or displacement – in assay [1] is 0.05 µM. For `CS(=O)(=O)N[C@H](CCCNC(=N)N)C(=O)NCC(=O)N[C@@H](CCCNC(=N)N)C(=O)c1nccs1`, at Coagulation factor X, the IC50 – broadly, the point on the concentration scale where inhibition reaches its midpoint – came to 0.002 µM. Consider `N=C(N)NCCC[C@@H](NS(=O)(=O)Cc1ccccc1)C(=O)NCC(=O)N[C@@H](CC1CCNCC1)C(=O)c1nccs1`, for which the IC50 against Coagulation factor X stood at 0.028 µM. The molecule `N=C(N)N1CCC[C@@H](C[C@H](NC(=O)CN2CC(=O)N(CCCc3ccccc3)CC2=O)C(=O)c2nccs2)C1` gave a Ki on Prothrombin of 0.5 µM. The molecule also had a half-inhibitory concentration (IC50) on Trypsin of 91 µM. With `N=C(N)NCCC[C@H](NC(=O)[C@@H]1CCCN1C(=O)CC(c1ccccc1)c1ccccc1)C(=O)c1nc2ccccc2s1`, on Prothrombin, the Ki amounted to 0.0011 µM. `NC(N)=NCCC[C@H](NC(=O)CN1CCN(S(=O)(=O)Cc2ccccc2)CC1=O)C(=O)c1nccs1`: the values for the 50% inhibitory concentration (IC50) on Prothrombin and against Coagulation factor X were 0.39 µM and 0.004 µM, respectively.

As to `Cn1nnnc1C(=O)[C@@H](NC(=O)[C@@H]1CC[C@H]2CN(S(=O)(=O)Cc3ccccc3)CC(=O)N21)[C@H]1CC[C@H](N)CC1`, the inhibition constant Ki on Prothrombin worked out at 0.005 µM; on Trypsin, 35 µM. `Cc1nc(C(=O)[C@@H](NC(=O)[C@@H]2CC[C@H]3CN(S(=O)(=O)Cc4ccccc4)CC(=O)N32)[C@H]2CC[C@H](N)CC2)sc1C(=O)O`: the Ki is 0.08 µM at Prothrombin and 65 µM at Trypsin.

In the case of `NC(N)=NCCC[C@H](NC(=O)CN1CCN(S(=O)(=O)c2ccc(Cl)cc2)CC1=O)C(=O)c1nccs1`, at Prothrombin, inhibition was half-maximal at 1 µM (IC50). Take `N=C(N)NCCC[C@H](NC(=O)CN1CCN(S(=O)(=O)Cc2ccccc2)[C@H](Cc2ccccc2)C1=O)C(=O)c1nccs1`: the concentration for half-maximal inhibition (IC50) against Prothrombin came to 0.51 µM; against Coagulation factor X, 0.0009 µM. `CCCCCCCC(=O)c1nc2ncccc2o1`: in assay [1], the affinity, expressed as Ki, was 0.00069 µM. On to `N=C(N)NCCC[C@H](NC(=O)CN1CCN(Cc2ccccc2)CC1=O)C(=O)c1nccs1`, for which the half-inhibitory concentration (IC50) against Prothrombin was 14 µM; on Coagulation factor X, 0.77 µM. As to `CCCCCCCC/C=C\CCCCCCCC(=O)c1nc2ccccc2s1`, the Ki in assay [1] is over 100 µM. `N=C(N)NCCC[C@@H](N)C(=O)NCC(=O)N[C@@H](CCCNC(=N)N)C(=O)c1nccs1` yielded an IC50 on Coagulation factor X of 0.008 µM. As for `CCCCC/C=C\C/C=C\C/C=C\C/C=C\CCCC(=O)c1nc2ncccc2o1`, the Ki in assay [1] stood at 0.001 µM. With `N=C(N)NCCC[C@H](NC(=O)CN1CCN[C@@H](CCCNC(=N)N)C1=O)C(=O)c1nccs1`, the figures for the 50% inhibitory concentration (IC50) at Prothrombin and against Coagulation factor X were 150 µM and 0.011 µM, respectively. The molecule `N=C(N)NCCC[C@@H](NS(=O)(=O)Cc1ccccc1)C(=O)NCC(=O)N[C@@H](Cc1ccncc1)C(=O)c1nccs1` displayed an IC50 at Coagulation factor X of 0.044 µM. Molecule `CCCCCCCC/C=C\CCCCCCCC(=O)c1nnco1` displayed an inhibition constant (Ki) in assay [1] of 0.09 µM.

With `CCCCC/C=C\C/C=C\C/C=C\C/C=C\CCCC(=O)[n+]1ccccn1`, the inhibitory constant (Ki) in assay [1] was found to be 0.047 µM. Molecule `C[C@]12C[C@@H](Cc3ccc4nc(C(F)(F)F)ccc4c3)CC(=O)N1[C@H](C(=O)N[C@@H](CCCNC(=N)N)C(=O)c1nc3ccccc3s1)CS2` yielded an inhibition constant (Ki) on Prothrombin of 0.018 µM.

On Trypsin, `C[C@H]1C(=O)N(CCCc2ccccc2)CC(=O)N1CC(=O)N[C@@H](C[C@@H]1CCCN(C(=N)N)C1)C(=O)c1nccs1` showed an IC50 of 24 µM. On to `CCCCCCCC/C=C\CCCCCCCC(=O)c1cccnn1`, for which, in assay [1], the Ki is 0.13 µM. Molecule `N=C(N)N1CCC[C@@H](C[C@H](NC(=O)CN2C(=O)CN(CCCc3ccc(Cl)cc3)C(=O)[C@H]2Cc2ccccc2)C(=O)c2nccs2)C1` returned an IC50 against Prothrombin of 0.11 µM. Molecule `CCCCCCCC/C=C\CCCCCCCC(=O)c1nnn(C)n1` registered a Ki in assay [1] of 0.065 µM. On to `N=C(N)NCCC[C@H](NC(=O)CNC(=O)[C@@H](Cc1ccccc1)NS(=O)(=O)Cc1ccccc1)C(=O)c1nccs1`, for which, at Coagulation factor X, the concentration for half-maximal inhibition (IC50) was 0.002 µM. Turning to `NC(N)=NCCC[C@H](NC(=O)CN1CCN[C@H](CCCN=C(N)N)C1=O)C(=O)c1nccs1`, the IC50 against Prothrombin is 200 µM; against Coagulation factor X, 0.021 µM. On to `N=C(N)N1CCC([C@H](NC(=O)[C@@H]2CC[C@H]3CN(C(=O)CCc4ccccc4)CC(=O)N32)C(=O)c2nccs2)CC1`, for which, at Trypsin, the IC50 stood at 11.9 µM. On Prothrombin, `NC(N)=NCCC[C@H](NC(=O)[C@@H]1CC[C@H]2CN(C(=O)[C@H](N)Cc3cc4ccccc4[nH]3)CC(=O)N21)C(=O)c1nccs1` showed an inhibition constant (Ki) of 0.001 µM.

Consider `CN[C@H](Cc1ccccc1)C(=O)N1CCC[C@H]1C(=O)N[C@](C)(CCCNC(=N)N)C(=O)c1nc2ccccc2s1.O=C(O)C(F)(F)F`, for which the results for the IC50 against Prothrombin and against Trypsin were 3.7 µM and 6 µM, respectively. `Cc1cccc(C(C)(C)CN(CC(=O)NCC(=O)NC(CCCN=C(N)N)B(O)O)C(=O)CCc2ccccc2)c1` (single isomer, unassigned) displayed an inhibition constant Ki on Prothrombin of 0.4 µM.

Turning to `O=C(CCc1ccc(-c2ccccc2)cc1)c1nc(-c2ccccn2)co1`, in assay [1], the affinity corresponds to a Ki of 0.00075 µM. With `C[C@]12C[C@@H](Cc3ccccc3)CC(=O)N1[C@H](C(=O)N[C@@H](CCCN=C(N)N)C(=O)c1nc3ccccc3s1)CS2`, the Ki at Prothrombin amounted to 0.018 µM.

In the case of `N=C(N)N1CCC[C@@H](C[C@H](NC(=O)CN2C(=O)CN(c3ccccc3)C(=O)[C@H]2Cc2ccccc2)C(=O)c2nccs2)C1`, on Prothrombin, the IC50 stood at 1.2 µM. `C[C@@H]1C(=O)N(CCCc2ccccc2)CC(=O)N1CC(=O)N[C@@H](C[C@@H]1CCCN(C(=N)N)C1)C(=O)c1nccs1`: the IC50 at Trypsin amounted to 0.34 µM.

As to `N=C(N)NCCC[C@H](NC(=O)CNC(=O)[C@@H](Cc1c[nH]c2ccccc12)NS(=O)(=O)Cc1ccccc1)C(=O)c1nccs1`, it took 0.002 µM to reach half-maximal inhibition on Coagulation factor X (IC50).

In assay [1], `CCCCCCCC/C=C\CCCCCCCC(=O)c1nccs1` returned an inhibitory constant (Ki) of over 100 µM. At Prothrombin, `N=C(N)NCCC[C@H](NC(=O)[C@@H]1CC[C@H]2CN(S(=O)(=O)Cc3ccccc3)CC(=O)N21)C(=O)c1nccs1` yielded an inhibition constant Ki of 0.0002 µM. Regarding `N=C(N)NCCC[C@H](NC(=O)[C@@H]1CCCN1C(=O)[C@H](CO)NS(=O)(=O)c1cccc2ccccc12)C(=O)c1nc2ccccc2s1`, affinity on Prothrombin was put at a Ki of 0.0008 µM.

Consider `N=C(N)NCCC[C@H](NC(=O)CN1CCN(C(=O)c2ccccc2)CC1=O)C(=O)c1nccs1`, for which the IC50 is 7 µM against Prothrombin and 0.32 µM against Coagulation factor X. In assay [1], `CCCCCCCC/C=C\CCCCCCCC(=O)c1nnnn1C` returned a Ki of 3.7 µM. In assay [1], `CCCCCCCCCC/C=C\CCCCCCC(=O)c1ncc(-c2cccnn2)o1` registered a Ki of 0.014 µM. For the molecule `CN(CC(=O)N[C@@H](CCCNC(=N)N)C(=O)c1nccs1)C(=O)CNS(=O)(=O)c1ccccc1`, it took 0.006 µM to reach half-maximal inhibition against Coagulation factor X (IC50). As for `NC(N)=NCCC[C@H](NC(=O)CN1CCN(S(=O)(=O)c2ccccc2)CC1=O)C(=O)c1nccs1`, the values for the IC50 against Prothrombin and on Coagulation factor X were 0.42 µM and 0.008 µM, respectively. `N=C(N)N1CCC[C@@H](C[C@H](NC(=O)CN2C(=O)CN(CCCc3ccccc3)C(=O)[C@H]2Cc2ccccc2)C(=O)c2nccs2)C1` displayed an IC50 against Trypsin of 9.1 µM. With `CCCCCCCC/C=C\CCCCCCCC(=O)c1ncco1`, the Ki in assay [1] was determined as 0.017 µM. `N=C(N)NCCC[C@H](NC(=O)Cn1c(Cc2ccccc2)c(Cl)nc(NCCc2ccccc2)c1=O)C(=O)c1nccs1` registered a concentration for half-maximal inhibition (IC50) against Trypsin of 0.47 µM. In the case of `N[C@H]1CC[C@H]([C@H](NC(=O)[C@@H]2CC[C@H]3CN(S(=O)(=O)Cc4ccccc4)CC(=O)N32)C(=O)c2nc3ccccc3s2)CC1`, the Ki was determined as 0.0007 µM on Prothrombin and 1.4 µM at Trypsin. In assay [1], `COC(=O)c1cccnc1-c1cnc(C(=O)CCCCCCc2ccccc2)o1` came in with an inhibitory constant (Ki) of 0.13 µM.

With `COc1ccnc(-c2cnc(C(=O)CCCCCCc3ccccc3)o2)c1`, the inhibition constant Ki in assay [1] stood at 0.0008 µM. `CCCCCCCC/C=C\CCCCCCCC(=O)c1nc2ccncc2o1` returned an inhibition constant (Ki) in assay [1] of 0.0037 µM. Regarding `N=C(N)NCCC[C@H](NC(=O)CN1CCN(S(=O)(=O)Cc2ccccc2)[C@@H](Cc2ccccc2)C1=O)C(=O)c1nccs1`, the figures for the half-maximal inhibitory concentration (IC50) against Prothrombin and against Coagulation factor X were 2 µM and 0.059 µM, respectively.

On Coagulation factor X, `N=C(N)NCCC[C@@H](NS(=O)(=O)Cc1ccccc1)C(=O)NCC(=O)N[C@@H](CCCCN)C(=O)c1nccs1` registered an IC50 of 0.001 µM. Turning to `CC(C)C[C@H](NC(=O)NCc1ccc(Cl)c(Cl)c1)C(=O)N[C@H](C(=O)N[C@@H](CCCN=C(N)N)C(=O)c1nccs1)C(C)C`, the IC50 on Prothrombin amounted to 2.6 µM.

`NC(N)=NCCC[C@H](NC(=O)CN1CCCC[C@@H](NS(=O)(=O)Cc2ccccc2)C1=O)C(=O)c1nccs1` gave an IC50 against Prothrombin of 0.038 µM.

As to `N=C(N)NCCC[C@H](NC(=O)CNC(=O)[C@@H](CC1CCCCC1)NS(=O)(=O)Cc1ccccc1)C(=O)c1nccs1`, the 50% inhibitory concentration (IC50) against Prothrombin was determined as 0.04 µM; against Coagulation factor X it was 0.0006 µM. On the same counts, the results for `NC(N)=NCCC[C@H](NC(=O)CN1CCN(C(=O)Cc2ccccc2)CC1=O)C(=O)c1nccs1` are 11 µM and 0.017 µM.

In turn, `N=C(N)NCCC[C@H](NC(=O)[C@@H]1CC[C@H]2CN(C(=O)CCOc3ccccc3)CC(=O)N21)C(=O)c1nccs1` displayed a Ki at Prothrombin of 0.005 µM. In the case of `C[C@]12C[C@@H](Cc3ccccc3)CC(=O)N1[C@H](C(=O)N[C@@H](CCCNC(=N)N)C(=O)c1nccs1)CS2`, the inhibition constant (Ki) at Prothrombin was 0.016 µM.

On Prothrombin, `N=C(N)NCCC[C@H](NC(=O)[C@@H]1CC[C@H]2CN(C(=O)CCc3ccccc3)CC(=O)N21)C(=O)c1nc2ccccc2s1` had an IC50 of under 0.001 µM. Turning to `C[C@]12C[C@@H](Cc3ccc4nc(C(F)(F)F)ccc4c3)CC(=O)N1[C@H](C(=O)N[C@@H](CCCN=C(N)N)C(=O)c1nccs1)CS2`, at Prothrombin, the Ki was 0.01 µM.
